The test system of data set [1] is glycogen synthase activity in 3T3 mouse adipocytes. The experiment in a line: Glycogen synthase (GS) assay in 3T3 mouse adipocytes. In kind it is cell-based. The conditions noted are these: 3T3 cells, 40 mM. The procedure:
Mouse pre-adipocytes 3T3-F442A were seeded at 9×10^5 cells per 10 cm dish in DMEM 10% FCS, containing penicillin/streptomycin. When 90% confluent, the same medium was supplemented with 1 μg/mL insulin. After 3-5 days (when most cells were differentiated) insulin was removed and 4 days later the cells were ready to use.
(§1) Cells on 10 cm dishes (Human Embryonic Kidney (HEK) 293 cells, L6 rat myocytes, or 3T3 mouse adipocytes) were treated with different concentrations of GSK3-inhibitors or DMSO vehicle for 90 min. Incubation medium was removed and cells were washed with ice-cold phosphate-buffered saline (PBS) prior to lysis on ice in 50 mM HEPES, pH 7.5, 10 mM EDTA, 100 mM NaF, 5 mM DTT, protease inhibitor cocktail (Sigma). After a freeze/thaw cycle the samples are sonicated for 10 sec and centrifuged at 15,000 g for 10 min at 4° C. Lysate supernatants were snap-frozen on liquid nitrogen and stored at −80° C. Lysates were assayed for glycogen synthase activity in buffer (50 mM Tris-HCl, pH 7.8, 20 mM EDTA, 25 mM NaF, 5 mM DTT, 1% glycogen, 0.3 mM UDP-glucose and 0.06 μCi of [^14C]-UDP-glucose in the presence of 0.1 or 10 mM glucose-6-phosphate. The reaction was carried out for 30 min at 30° C. 70 μL of the reaction mixture (total volume 90 μL) were transferred to a GFC 96-well filter plate (bottom sealed with foil), containing 140 μL 96% ethanol. The GFC plate was incubated for 1 h on ice and than washed with 66% ethanol. To each well 100 μL scintillant liquid was added and the radioactivity of the samples was measured using a scintillation counter (Topcount, HP). Data are expressed as -fold increase in glycogen synthase activity ratios over those of control samples.

Data set [2] concerns β-catenin-LEF/TCF transcriptional activity in HEK293 cells. The data set is described as follows: β-Catenin-LEF/TCF regulated reporter gene assay. In kind it is cell-based, human. Particulars: LiCl. The text has this:
Furthermore, the effect of compound XIV on the β-catenin-dependent transcriptional activity, as measured in a luciferase based reporter gene assay, was studied.
HEK293 cells were transfected with either β-catenin-LEF/TCF-sensitive or β-catenin-LEF/TCF-insensitive reporter vector (Upstate Biotechnology, Inc.) using Lipofectamine Plus reagent (GibcoBRL) according to the manufacturer's instructions. The next day, cells were trypsinized, washed into serum-free medium, counted and seeded at 40,000 cells per well in a 96-well plate. Subsequent to cell attachment, LiCl or GSK-3 inhibitor compound were added to the medium to the required concentrations. Control cells were DMSO vehicle treated. 16 h after inhibitor addition, cells were analyzed for luciferase activity using the Steady-Glo Luciferase assay system (Promega) according to the manufacturer's instructions.
On the technique in general: A reporter such as luciferase makes a cellular process visible.

Data set [3] has as its system glycogen synthase activity in HEK293 cells. The experiment in a line: Glycogen synthase (GS) assay in HEK293 cells. The class given is cell-based, human. The procedure: as §1
Data set [4] concerns the target T1, GSK-3β (Oryctolagus cuniculus, UniProt G1T8E2).
T1 construct: isolated from a strain of E. coli that carries a clone expressing GSK-3β derived from a rabbit skeletal muscle cDNA library [34]
The data set is described as follows: GSK-3β kinase assay. In kind it is biochemical, rabbit. Particulars: read-out: Kinase inhibition IC50 GSK3β. Here is the method:
GSK-3 was obtained from New England Biolabs (UK) Ltd., Hitchin, Herts. The recombinant enzyme was isolated from a strain of E. coli that carries a clone expressing GSK-3β derived from a rabbit skeletal muscle cDNA library. Inhibition of GSK-3 function was assessed by measurement of phosphorylation of CREB phosphopeptide KRREILSRRPpSYR in the presence of test compounds. Using a 96-well assay format, GSK3 (7.5 U) was incubated for 30 min at 30° C. in a total volume of 25 μL in 20 mM MOPS pH 7.2, 25 mM β-glycerophosphate, 5 mM EGTA, 1 mM DTT, 1 mM […], 40 μM CREB peptide, 15 mM MgCl2 and 100 μM ATP (containing 0.25 μCi [γ-^32P]-ATP) in the presence of varying concentrations of test compound. The samples were transferred to 96-well p81 filter plates (Whatman Polyfiltronics, Kent, UK), and the plates were washed 4 times with 200 μL/well of 75 mM aq orthophosphoric acid. Scintillation liquid (50 μL) was added to each well, and incorporated radioactivity for each sample was determined using a scintillation counter (TopCount, Packard Instruments, Pangbourne, Berks, UK).

Data set [5] has as its target T2, CDK2/cyclin A (Homo sapiens, UniProt P24941).
T2 construct: His6 (N); made in house; host or cells: Sf9 insect cells (baculovirus)
The data set is described as follows: CDK/cyclin kinase assay, CDK2/cyclin A. The class given is biochemical. The conditions noted are these: primary screening at 1 μM. The procedure:
(§2) CDK4/cyclin D1, CDK1/cyclin B, CDK2/cyclin E, CDK2/cyclin A, CDK9/cyclin T1 and CDK7/cyclin H, all with a His6 tag on the N-terminus, were expressed in Sf9 insect cells using an appropriate baculovirus construct. Sf9 culture (1.6×10^6 cells/mL) was infected (MOI of 3) for two days. The cells were harvested by low speed centrifugation and the protein was purified from the insect cell pellet by metal affinity chromatography. In short: the insect cell pellet was lysed in Buffer A (10 mM Tris-HCl pH 8.0, 150 mM NaCl, 0.02% NP-40, 5 mM β-mercaptoethanol, 20 mM NaF, 1 mM Na3VO4, and Sigma Protease Inhibitor Cocktail) by sonication. The soluble fraction was cleared by centrifugation and loaded onto Ni-NTA-Agarose (Qiagen). Non-bound protein was washed off with 300 mM NaCl, 5-15 mM imidazole in buffer A and the bound protein was eluted with buffer A supplemented with 250 mM imidazole. The purified proteins were extensively dialyzed against storage buffer (20 mM HEPES pH 7.4, 50 mM NaCl, 2 mM DTT, 1 mM EDTA, 1 mM EGTA, 0.02% NP-40, 10% v/v glycerol) and stored at −70° C.
(§3) Compounds were investigated for their CDK2/cyclin E, CDK2/cyclin A, CDK1/cyclin B, and CDK4/cyclin D1 inhibitory activity. His6-tagged recombinant human cyclin-dependent kinases CDK1/cyclin B1, CDK2/cyclin E, CDK2/cyclin A, and CDK4 were expressed in sf9 insect cells using a baculovirus expression system. Recombinant cyclin D1 was expressed in E. coli. Proteins were purified by metal chelate affinity chromatography to greater than 90% homogeneity. Kinase assays were performed in 96-well plates using recombinant CDK/cyclins. Assays were performed in assay buffer (25 mM β-glycerophosphate, 20 mM MOPS, 5 mM EGTA, 1 mM DTT, 1 mM […], pH 7.4), into which were added 2-4 μg of active enzyme with appropriate substrates (purified histone H1 for CDK1 and CDK2, recombinant GST-retinoblastoma protein (residues 773-928) for CDK4). The reaction was initiated by addition of Mg/ATP mix (15 mM MgCl2+100 μM ATP with 30-50 kBq per well of [γ-^32P]-ATP) and mixtures incubated for 10-45 min, as required, at 30° C. Reactions were stopped on ice, followed by filtration through p81 or GF/C filterplates (for CDK4) (Whatman Polyfiltronics, Kent, UK). After washing 3 times with 75 mM aq orthophosphoric acid, plates were dried, scintillant added and incorporated radioactivity measured in a scintillation counter (TopCount, Packard Instruments, Pangbourne, Berks, UK). Compounds for kinase assays were made up as 10 mM stocks in DMSO and diluted into 10% DMSO in assay buffer. Data was analysed using curve-fitting software (GraphPad Prism version 3.00 for Windows, GraphPad Software, San Diego Calif. USA) to determine IC50 values (concentration of test compound which inhibits kinase activity by 50%).

Data set [6] deals with T3, CDK1/cyclin B1 (Homo sapiens, UniProt P06493).
T3 construct: His6 (N); made in house; host or cells: Sf9 insect cells (baculovirus)
T3 sequence (P06493 whole entry): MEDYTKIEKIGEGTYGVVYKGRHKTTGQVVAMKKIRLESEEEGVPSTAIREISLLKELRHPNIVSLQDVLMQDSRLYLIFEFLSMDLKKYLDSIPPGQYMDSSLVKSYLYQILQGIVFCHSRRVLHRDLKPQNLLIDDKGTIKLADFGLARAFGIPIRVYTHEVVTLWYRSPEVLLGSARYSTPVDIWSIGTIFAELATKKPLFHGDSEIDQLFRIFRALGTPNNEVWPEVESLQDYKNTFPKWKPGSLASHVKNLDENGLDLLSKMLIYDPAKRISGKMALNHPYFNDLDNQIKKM
T3 sequence (P14635 whole entry partner): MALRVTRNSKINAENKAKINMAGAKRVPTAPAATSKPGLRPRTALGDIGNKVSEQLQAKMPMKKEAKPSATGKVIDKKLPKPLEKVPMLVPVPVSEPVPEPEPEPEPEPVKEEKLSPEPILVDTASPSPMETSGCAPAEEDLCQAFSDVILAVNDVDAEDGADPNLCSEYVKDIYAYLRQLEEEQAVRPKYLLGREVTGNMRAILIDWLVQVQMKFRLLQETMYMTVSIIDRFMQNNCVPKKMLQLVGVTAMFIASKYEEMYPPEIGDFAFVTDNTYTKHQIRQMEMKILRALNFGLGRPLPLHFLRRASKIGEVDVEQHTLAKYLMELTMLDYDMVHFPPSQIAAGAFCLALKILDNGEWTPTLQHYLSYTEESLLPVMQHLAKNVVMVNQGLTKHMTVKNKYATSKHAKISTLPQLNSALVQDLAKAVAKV
The experiment in a line: CDK/cyclin kinase assay, CDK1/cyclin B1. The conditions noted are these: primary screening at 1 μM. The class given is biochemical. Here is the method: as §2, §3

Data set [7] deals with T4, CDK2/cyclin E (Homo sapiens, UniProt P24941).
T4 construct: His6 (N); made in house; host or cells: Sf9 insect cells (baculovirus)
The experiment in a line: CDK/cyclin kinase assay, CDK2/cyclin E. The class given is biochemical. The conditions noted are these: primary screening at 1 μM. Here is the method:
as §2, §3

Data set [8] has as its target T5, CDK4/cyclin D1 (Homo sapiens, UniProt P11802).
T5 construct: His6 (N); made in house; host or cells: CDK4: Sf9 insect cells (baculovirus); Cyclin D1: E. coli, Sf9
The experiment in a line: CDK/cyclin kinase assay, CDK4/cyclin D1. In kind it is biochemical. The conditions noted are these: read-out: Kinase inhibition IC50 CDK4/D1. Here is the method:
as §2, §3

T5 sequence (P11802 whole entry): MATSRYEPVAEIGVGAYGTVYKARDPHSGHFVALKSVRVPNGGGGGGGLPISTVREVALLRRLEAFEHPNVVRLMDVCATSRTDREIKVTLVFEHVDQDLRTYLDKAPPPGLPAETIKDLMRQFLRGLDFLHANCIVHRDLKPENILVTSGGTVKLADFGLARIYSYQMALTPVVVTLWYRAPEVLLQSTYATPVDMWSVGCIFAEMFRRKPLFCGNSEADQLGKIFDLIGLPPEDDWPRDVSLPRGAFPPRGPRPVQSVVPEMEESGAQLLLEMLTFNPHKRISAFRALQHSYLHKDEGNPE
T5 sequence (P24385 whole entry partner): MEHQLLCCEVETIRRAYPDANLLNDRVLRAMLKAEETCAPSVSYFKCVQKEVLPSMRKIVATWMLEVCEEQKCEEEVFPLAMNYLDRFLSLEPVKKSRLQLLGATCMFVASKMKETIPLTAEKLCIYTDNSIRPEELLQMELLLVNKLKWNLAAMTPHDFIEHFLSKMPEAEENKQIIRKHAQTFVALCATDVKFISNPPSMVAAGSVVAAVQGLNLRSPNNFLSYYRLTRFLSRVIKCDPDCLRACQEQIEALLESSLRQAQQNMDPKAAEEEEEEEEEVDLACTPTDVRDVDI
T1 sequence (G1T8E2 1-432): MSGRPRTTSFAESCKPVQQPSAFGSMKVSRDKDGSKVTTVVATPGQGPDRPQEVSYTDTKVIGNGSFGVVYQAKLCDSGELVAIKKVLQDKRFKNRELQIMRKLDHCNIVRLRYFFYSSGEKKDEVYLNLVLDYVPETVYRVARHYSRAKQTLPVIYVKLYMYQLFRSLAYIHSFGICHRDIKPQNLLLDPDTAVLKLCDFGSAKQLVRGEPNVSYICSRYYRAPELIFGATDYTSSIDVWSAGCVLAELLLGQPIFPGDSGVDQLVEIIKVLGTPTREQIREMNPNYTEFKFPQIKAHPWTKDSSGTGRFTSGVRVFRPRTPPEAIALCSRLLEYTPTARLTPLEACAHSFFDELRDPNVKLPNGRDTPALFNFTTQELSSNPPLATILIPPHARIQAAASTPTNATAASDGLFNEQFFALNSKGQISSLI

As for `[Cl-].[Li+]` [LiCl, reference compound], the “Fold induction of GS activity” value in data set [1] is 2 fold; in data set [3] (HEK293 cells, 40 mM), 3.7 fold. In data set [2], the β-catenin-dependent luciferase activity entry is given as “massive induction”.

For `OCCc1sc(-c2ccnc(Nc3ccc(Cl)nc3)n2)nc1O` [XXVI, 2-[2-(6-Chloro-pyridin-3-ylamino)-pyrimidin-4-yl]-5-(2-hydroxy-ethyl)-thiazol-4-ol], the IC50 is 164 nM in data set [4] and 2080 nM in data set [8]. In addition, the inhibition at 1 µM in data set [5], in data set [6] and in data set [7] was below 50% in each case. For the same compound, in data set [3] (Homo sapiens, In HEK293 cells at [compound] = 5 μM (Table 2)), the fold induction (in general, the signal under treatment as a multiple of the control signal) at 5 µM turned out to be 5.2 ± 3.2.

The record behind these values is patent US20080318954A1, “Compounds” (Cyclacel Limited, priority 2004, published 2008).
